Test results as given in paper PMC6563099, “Novel Thienopyrimidine Derivative, RP-010, Induces β-Catenin Fragmentation and Is Efficacious against Prostate Cancer Cells” (Cancers, 2019).

How the values were obtained:
PC-3 [1] = test: Colony formation assay, PC-3; format: cell-based; settings: 1 or 2 µM, vs vehicle, p < 0.01
Method: This assay was performed as previously described. The DU145 and PC-3 cells were incubated with RP-010 (1 or 2 µM) for 24 h. […], the medium was discarded and cells were trypsinized with 0.25% trypsin, 2.21-mM EDTA, and then harvested, counted, and reseeded in 6-well plates at a low density (500 cell/well). The cells were allowed to form colonies for 10–14 days at 37 °C, with the medium being changed every other day. Subsequently, methanol was used to fix the colonies formed in each plate, followed by staining the colonies with 0.1% crystal violet dye for 30 min. Finally, colonies were viewed and counted under an EVOS microscope (Themo Fisher Scientific, Wayne, MI, USA). The colony formation rate equation was applied for each compound: Colony formation rate = the number of colonies/numbers of seeded cells × 100%.

PC-3 [2] = test: Cell cycle analysis (PI, flow cytometry), PC-3; format: cell-based; settings: 0.5, 1 or 2 µM
Method: The effect of RP-010 on the cell cycle phases and function was determined using cell cycle analysis with PI staining, followed by flow cytometry. The cells were incubated with either vehicle or RP-010 (0.5, 1 or 2 µM) for 24 h. After incubation overnight, the cells were collected, washed and resuspended as an ice-cold PBS suspension. The DNA was stained with PI for at least 15 min on ice. A FACS Calibur flow cytometer from BD Biosciences (San Jose, CA, USA) was used to determine the distribution of the cells following incubation with vehicle or RP-010. Finally, the data were viewed and analysed using FlowJo v10.2 software from FlowJo LLC (Ashland, OR, USA).

**Q.** `COc1ccc(-c2nc3sc4c(c3c(=O)[nH]2)CCCC4)cc1` [RP10] was tested. Which Colony formation rate (PC-3 [1]) did it give?
**A.** significantly decreased

**Q.** What about the “Percentage of cells in G1” value (PC-3 [2]) of the same molecule?
**A.** significant decrease

**Q.** And the “Percentage of cells in the G2 phase” value (PC-3 [2])?
**A.** significant increase
